# According to US20180044686A1, “TOOLS AND METHODS FOR USING CELL DIVISION LOCI TO CONTROL PROLIFERATION OF CELLS” (Sinai Health System, priority 2015, published 2018):
# Key:
# [1] = test system: subcutaneous teratomas comprising ALINK-modified H1 ES cells; assay: Teratoma assay, ALINK-modified human ES cells; assay type: in vivo, mouse (human ES cell graft); details: NOD scid gamma mouse hosts; two rounds of GCV (15 days + 40 days)
# Experimental: (§1) Matrigel Matrix High Concentration (Corning) was diluted 1:3 with cold DMEM media on ice. 5-10×10^6 cells were suspended into 100 ul of 66% DMEM+33% Matrigel media and injected subcutaneously into either or both dorsal flanks of B6N mice (for mouse C2 ES cells) and NOD-SCID mice (for human ES cells). Teratomas formed 2-4 weeks after injection. Teratoma size was measured by caliper, and teratoma volume was calculated using the formula V=(L×W×H)π/6. GCV/PBS treatment was performed by daily injection with 50 mg/kg into the peritoneal cavity with different treatment durations. At the end of treatment, mice were sacrificed and tumors were dissected and fixed in 4% paraformaldehyde for histology analysis.
# [2] = test system: mixed culture of non-dividing neurons and dividing NEPs derived from Cdk1+/+,+/alink human CA1 ES cells; assay: Neuronal progenitor vs. neuron killing assay; assay type: cell-based; details: GCV 10 uM every other day for 20 days
# Experimental: Cdk1^+/+, +/alink human CA1 ES cells were differentiated to neural epithelial progenitor cells (NEPs). NEPs were subsequently cultured under conditions for differentiation into neurons, thereby generating a mixed culture of non-dividing neurons and dividing NEPs, which were characterized by immunostaining of DAPI, Ki67 and Sox2. GCV (10 uM) was provided to the mixed culture every other day for 20 days. Then, GCV was withdrawn from culture for 4 days before cells were fixed by 4% PFA. Fixed cells were immunostained for proliferation marker Ki67 to check whether all the leftover cells have exited cell cycle, and mature neutron marker beta-TublinIII.
# [3] = test system: subcutaneous teratomas comprising ALINK-modified mouse C2 cells; assay: Teratoma assay, ALINK-modified mouse C2 ES cells; assay type: in vivo
# Experimental: as §1
# [4] = test system: ALINK-modified MMTV-PyMT-transformed mammary epithelial tumorigenic cell grafts; assay: Mammary gland tumor assay; assay type: in vivo, mouse; details: B6N hosts; GCV 50 mg/kg every other day i.p.
# Description: Chimeras of Cdk1^+/+, +/loxp-alink mouse C2 ES and CD-1 backgrounds were generated through diploid aggregation, and then were bred with B6N WT mice to generate Cdk1^+/+, +/loxp-alink mice through germline transmission. Cdk1^+/+, +/loxp-alink mice were bred with Ella-Cre mice to generate Cdk1^+/+, +/alink mice. Cdk1^+/+, +/alink mice were then bred with MMTV-PyMT mice (Guy et al., 1992) to get double-positive pups with mammary gland tumors and ALINK modification. Mammary gland tumors with fail-safe modification were isolated, cut into 1 mm^3 pieces, and transplanted into the 4th mammary gland of wild-type B6N females. GCV/PBS treatment was injected every other day at the dosage of 50 mg/kg into the peritoneal cavity with different treatment durations. Mammary gland tumor size was measured by calipers and calculated with the formula V=Length*Width*Height*π/6.
# [5] = test system: homozygous Cdk1 dox-bridge knock-in mouse ES cells; assay: Targeted cell growth of Cdk1 dox-bridge (EARC) ES cells; assay type: cell-based; details: withdrawal of doxycycline
# Experimental: F3-bridge targeted cells were trypsinized and plated on gelatinized 24 well plates at a density of 5×10^4 cells per well. Starting one day after plating, cell counting was performed by trypsinizing 3 wells for each condition and counting live cells using a Countess automated cell counter (Life Technologies). Doxycycline was removed or reduced to 0.05 ng/ml 2 days after plating and live cells were counted every day up to 18 days in the different conditions.
# Birc5-EARC ES cells = assay: Targeted cell growth of Birc5-EARC ES cells; assay type: cell-based, mouse; details: withdrawal of doxycycline
# Experimental: (§2) Birc5 homozygously-targeted cells were trypsinized and plated on gelatinized 24 well plates at a density of 5×10^4 cells per well. Starting one day after plating, cells were exposed to different Dox concentrations (1 μg/ml, 0.5 μg/ml, 0.05 μg/ml and 0 μg/ml), the plate was analyzed in a IncucyteZoom system (Essen Bioscience) by taking pictures every two hours for 3-4 days and measuring confluence.
# Cenpa-EARC ES cells = assay: Targeted cell growth of Cenpa-EARC ES cells; assay type: cell-based, mouse; details: withdrawal of doxycycline
# Experimental: as §2, with “Cenpa” for “Birc5”, “confluency.” for “confluence.”
# Top2a-EARC ES cells = assay: Targeted cell growth of Top2a-EARC ES cells; assay type: cell-based, mouse; details: withdrawal of doxycycline
# Experimental: as §2, with “Top2a” for “Birc5”, “confluency.” for “confluence.”
# Eef2-EARC ES cells = assay: Targeted cell growth of Eef2-EARC ES cells; assay type: cell-based, mouse; details: withdrawal of doxycycline
# Experimental: as §2, with “Eef2” for “Birc5”
# [6] = cited from earlier work
molecule,measurement,setting,value
"Nc1nc(O)c2ncn(COC(CO)CO)c2n1 [GCV, ganciclovir]",teratoma dormancy,[1],rendered the teratomas to dormancy
same,killing of dividing NEPs,[2],killed the dividing NEPs
same,killing of non-dividing neurons,[2],did not kill the non-dividing neurons
same,effect on quiescent cells of the teratoma,[3]; GCV 50 mg/kg daily i.p.,did not affect quiescent cells of the teratoma
same,teratoma growth,[3]; GCV 50 mg/kg daily i.p.,stops teratoma growth
same,teratoma dormancy,[3]; brief (3 week) GCV treatment period,sufficient to render the teratomas dormant
same,mammary gland tumor dormancy,[4],able to render the mammary gland tumors to dormancy
C[C@H]1c2cccc(O)c2C(=O)C2=C(O)[C@]3(O)C(=O)C(C(N)=O)=C(O)[C@@H](N(C)C)[C@@H]3[C@@H](O)[C@@H]21 [doxycycline],time to complete elimination of mitotically active ES cells,[5],≤ 5 days
same,time to complete elimination of mitotically active ES cells,Birc5-EARC ES cells,≤ 4 days
same,time to complete elimination of mitotically active ES cells,Cenpa-EARC ES cells,≤ 4 days
same,time to complete elimination of mitotically active ES cells,Top2a-EARC ES cells,≤ 4 days
same,time to complete elimination of mitotically active ES cells,Eef2-EARC ES cells,≤ 4 days
Bms1,"CS score (CRISPR score average provided in Wang et al., 2015)","[6]; gene locus (predicted CDL), CRISPR score average",−1.36
Ppan,CS score,"[6]; CRISPR score average provided in Wang et al., 2015, score of the gene locus (predicted CDL)",−1.62
